We go through three compounds from patent publication US11179347B2, “Hydrocarbon oil for a therapeutic use” (TOTAL MARKETING SERVICES, priority 2017, dated 2021).

In experiment [1] the test system is HaCaT cells. Put plainly: Production of reactive oxygen species in HaCat cells incubated with oil then preservative (POE or MIT). The experiment is classed as cell-based. As for the experimental part: Preservatives, used as an additive in pharmaceutical compositions, were evaluated. The preservatives evaluated are phenoxyethanol (POE) and methylisothiazolinone (MIT).
For this test, the HaCat cells are incubated with the oils A or B (for example for 15 minutes for the test with POE) then with the preservative POE or MIT (for example for 30 minutes with a solution of phenoxyethanol at 250 μg/mL).

Experiment [2] concerns HaCaT cells. Put plainly: Condensation of the chromatin, HOECHST 33342 test, HaCat cells with or without benzalkonium chloride. The format is cell-based. The following applies: one hour with oil or CM, then 20 minutes benzalkonium chloride (BAC) 8 ppm by weight. The protocol: The following standards and methods were used to measure the properties hereinabove: • flash point: EN ISO 2719 • density at 15° C.: EN ISO 1185 • viscosity at 40° C.: EN ISO 3104 • aniline point: EN ISO 2977 • boiling point: ASTM D86 • biodegradability: OECD method 306 • refractive index at 20° C.: ASTM D 1218 • vapour pressure: calculated according to methods well known to those skilled in the art Tests on the Cellular Effects Preparation of the Tests: • Preparation of the microplates: 24 hours before the incubation with the oils A and B, the HaCaT cells are inoculated with a cell density of 100,000 cells/ml in 96-well microplates (Corning). The microplates are then placed in the incubator at 37° C. In a microplate, each condition was tested at least three times. Each experiment was carried out at least three times independently in order to validate the reproducibility of the results and to carry out statistical analyses. • Incubation of cells with the oils A or B: two durations of incubation were selected for the products to be tested pure: an incubation for fifteen minutes and an incubation for one hour. […]
The measurement of the condensation of the chromatin expressed as a percentage relative to the culture medium (CM) is indicated in table 3 hereinbelow.

Marks after values point to notes of the source that are not given here.

On to `Cn1sccc1=O` [MIT, methylisothiazolinone], for which the “Production of reactive oxygen species (% relative to the CM)” value with HaCaT cells [1] (with preservative methylisothiazolinone (MIT), after incubation with oil or CM) is reported as 135 % relative to the CM.
Turning to benzalkonium chloride [CM + BAC], in the experiment on HaCaT cells [2], the “Measurement of the condensation of the chromatin (% relative to the CM)” value was 138*** % relative to the CM.
Regarding phenoxyethanol [CM + POE], the “Production of reactive oxygen species (% relative to the CM)” value in the experiment on HaCaT cells [1] (with preservative phenoxyethanol (POE) 250 μg/mL 30 minutes, after 15 minutes with oil or CM) is listed as 132 % relative to the CM.
